Experimental data reported in patent publication US20260306527A1, “PRMT INHIBITOR COMPOUNDS AND THE USES THEREOF” (Purdue Research Foundation, priority 2023, published 2026).

Columns and labels:
PRMT3/4/5 = test: inhibition of PRMT3/4/5 (summary); format: biochemical; conditions: range over PRMT3/4/5
Protocol: (§1) The selectivity of compounds YD1113 and YD1290 on PRMTs were performed by Reaction Biology Corp.

PRMT3 [1] = biological target: T1, PRMT3 (Homo sapiens, UniProt O60678); test: selectivity of YD1113/YD1290 on PRMT panel, PRMT3; format: biochemical
In short: (§2)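 Radioactivity-based PRMT activity assay run by an external provider; YD1113 profiled across the PRMT panel at 10 μM.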
Target sequence in this assay (O60678 whole entry, species assumed): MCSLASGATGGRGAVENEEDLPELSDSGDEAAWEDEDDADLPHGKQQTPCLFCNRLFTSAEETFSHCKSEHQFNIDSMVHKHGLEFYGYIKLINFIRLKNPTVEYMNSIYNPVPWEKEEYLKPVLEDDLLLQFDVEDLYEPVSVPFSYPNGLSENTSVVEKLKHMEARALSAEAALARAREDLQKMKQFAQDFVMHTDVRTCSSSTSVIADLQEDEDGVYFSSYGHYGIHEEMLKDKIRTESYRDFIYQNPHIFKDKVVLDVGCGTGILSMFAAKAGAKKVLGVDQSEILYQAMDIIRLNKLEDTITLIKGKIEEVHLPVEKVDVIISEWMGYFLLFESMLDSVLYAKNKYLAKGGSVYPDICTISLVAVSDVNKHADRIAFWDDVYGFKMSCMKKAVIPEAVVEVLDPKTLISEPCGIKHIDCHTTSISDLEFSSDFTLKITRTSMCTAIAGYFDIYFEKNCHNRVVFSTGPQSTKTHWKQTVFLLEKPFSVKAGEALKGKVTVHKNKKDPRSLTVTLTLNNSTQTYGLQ

PRMT3 [2] = biological target: T1, PRMT3; test: inhibition mechanism study on PRMT3, SAHH-coupled fluorescence; format: biochemical; parameters: PRMT3 (residues 211-531) was cloned into the pET28a-MHL expression vector; tag of the pET28a-MHL vector (not described); made in house; host or cells: Escherichia coli BL21(DE3); conditions: role: inhibitor
Protocol: The inhibition mechanism of YD1113 on PRMT3 was studied with the fluorescence-based SAHH-coupled assay. Varying concentrations of SAM (from 30 to 240 μM) with 30 μM fixed concentration of H4-21 or varying concentration of H4-21 (from 15 to 240 μM) with 30 μM fixed concentration of SAM were included in reactions at concentration of YD1113 ranging from 1.5 nM to 100 μM.
All the IC50 values were determined in triplicate. Fluorescence was monitored on a BMG CLARIOstar microplate reader with excitation 380 nm and emission 505 nm. Data were processed by using GraphPad Prism software 8.0.
The sensitivity of YD1113 to the steric effects in the above SAR studies (Table 1; FIG. 9) is inexplicable by a relatively open and tolerable peptide substrate binding channel of PRMTs. (Tewary et al. 2019) This contradiction prompted the hypothesis that YD1113 binds to an alternative pocket rather than acts as a bisubstrate analogue to reach the peptide binding pocket. This hypothesis was tested by investigating its inhibition mechanism with a SAHH-coupled fluorescence-based assay. (Richardson et al. 2015) The IC50 values of YD1113 remained constant with the increased ratio of peptide/Km (FIG. 3a-b) while increasing linearly with the ratio of SAM/Km (FIG. 3c-d). […]
Target sequence in this assay (O60678 211-531): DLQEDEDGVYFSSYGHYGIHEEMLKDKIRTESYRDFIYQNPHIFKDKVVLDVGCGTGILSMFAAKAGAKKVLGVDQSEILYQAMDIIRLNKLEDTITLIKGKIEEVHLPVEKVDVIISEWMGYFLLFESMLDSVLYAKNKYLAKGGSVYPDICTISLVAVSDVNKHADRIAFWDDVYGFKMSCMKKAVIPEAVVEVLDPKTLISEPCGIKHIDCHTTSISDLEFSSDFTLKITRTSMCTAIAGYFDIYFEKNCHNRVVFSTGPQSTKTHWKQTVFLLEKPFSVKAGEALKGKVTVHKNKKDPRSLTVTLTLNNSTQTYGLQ

PRMT8 = PRMT8 (Homo sapiens, UniProt Q9NR22); test: radioactive assay (Reaction Biology Corp.), inhibition of PRMT8; format: biochemical
Chain of PRMT8 (Q9NR22 whole entry, species assumed): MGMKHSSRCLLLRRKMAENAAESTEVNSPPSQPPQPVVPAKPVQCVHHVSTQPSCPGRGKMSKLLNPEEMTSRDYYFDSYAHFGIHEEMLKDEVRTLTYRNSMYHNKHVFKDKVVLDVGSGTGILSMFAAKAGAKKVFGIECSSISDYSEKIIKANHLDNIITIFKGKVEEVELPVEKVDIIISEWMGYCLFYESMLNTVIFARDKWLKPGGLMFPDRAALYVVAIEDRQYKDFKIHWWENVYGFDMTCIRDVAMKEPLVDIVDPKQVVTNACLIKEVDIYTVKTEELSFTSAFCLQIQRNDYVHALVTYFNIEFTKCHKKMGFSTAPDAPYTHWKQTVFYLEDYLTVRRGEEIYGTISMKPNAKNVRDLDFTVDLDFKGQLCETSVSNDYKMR
Protocol: Next, the inhibition activity of the library was investigated for five PRMT members from type I PRMTs.
The PRMT 4, 6 and 8 methylation assays were performed by Reaction Biology corp.

PRMT1 [3] = biological target: T2, PRMT1 (Homo sapiens, UniProt Q99873); test: thermal shift assay PRMT1; format: binding; conditions: 100 μM compound, 10 μM protein
T2 construct: made in house
T2 sequence (Q99873 whole entry, species assumed): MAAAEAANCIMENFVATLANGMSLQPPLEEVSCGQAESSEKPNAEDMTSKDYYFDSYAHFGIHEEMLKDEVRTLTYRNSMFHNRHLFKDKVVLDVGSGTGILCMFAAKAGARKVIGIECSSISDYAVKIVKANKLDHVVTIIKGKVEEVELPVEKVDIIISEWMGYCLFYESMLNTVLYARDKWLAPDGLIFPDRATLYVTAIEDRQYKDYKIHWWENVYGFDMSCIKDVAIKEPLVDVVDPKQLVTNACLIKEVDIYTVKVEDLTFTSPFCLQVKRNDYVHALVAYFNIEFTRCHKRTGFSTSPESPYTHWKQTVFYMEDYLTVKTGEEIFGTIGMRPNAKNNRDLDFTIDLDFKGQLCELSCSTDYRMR
Protocol: (§3) The fluorescence-based thermal shift assay was performed using a StepOne plus qPCR instrument (Thermal Fisher). For PRMT1, 10 μM of protein was mixed with 2× sypro orange and DMSO, or 100 μM SAM, or 100 μM YD1113, or 100 μM YD1290 in a buffer consisting of 2.5 mM HEPES (pH=7.0), 25 mM NaCl, 25 μM EDTA, 50 μM TCEP, 0.01% Triton X-100. For PRMT3, 20 μM of protein was mixed with 2× sypro orange and DMSO, or 100 μM SAM, or 100 μM YD1113, or 100 μM YD1290 in a buffer consisting of 20 mM Tris (pH=7.5), 0.01% Triton X-100. For PRMT4, 20 μM of protein was mixed with 2× sypro orange and DMSO, or 100 μM SAM, or 100 μM YD1113, or 100 μM YD1290 in a buffer consisting of 20 mM bicine (pH=8.5), 0.01% Triton X-100. All samples were heated from 25° C. to 75° C. at an increased rate of 0.5° C. per minute. Protein denaturation was monitored by the increased fluorescence signal of Sypro Orange, which captures exposed hydrophobic residues during thermal unfolding. The recorded curves were analyzed by the software StepOne plus and plotted in GraphPad Prism 8 software.
(§4) Next, the thermal shift assay (TSA) was conducted as an orthogonal method to examine the effects of YD1290 on the thermal stability of PRMT1, 3, and 4 (Figure S1).

PRMT4 = biological target: T3, PRMT4 (Homo sapiens, UniProt Q86X55); test: thermal shift assay PRMT4; format: binding; conditions: 100 μM compound, 20 μM protein
T3 construct: PRMT4 (residues 140-480) was cloned into the pFBOH-MHL vector; tag of the pFBOH-MHL vector (poly-His implied by Ni-NTA purification; not described); made in house; host or cells: Sf9 insect cells
T3 sequence (Q86X55 140-480): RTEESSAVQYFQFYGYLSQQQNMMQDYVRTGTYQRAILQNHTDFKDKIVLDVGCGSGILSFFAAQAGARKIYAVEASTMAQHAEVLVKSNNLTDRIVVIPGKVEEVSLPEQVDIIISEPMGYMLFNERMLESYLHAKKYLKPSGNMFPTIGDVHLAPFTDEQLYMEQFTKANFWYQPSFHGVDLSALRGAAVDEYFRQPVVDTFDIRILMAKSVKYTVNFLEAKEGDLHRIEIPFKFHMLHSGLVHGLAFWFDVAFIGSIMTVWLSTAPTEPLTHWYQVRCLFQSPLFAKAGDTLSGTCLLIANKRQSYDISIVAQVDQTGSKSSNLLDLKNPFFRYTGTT
Protocol: as §3, §4

PRMT1 [4] = biological target: T2, PRMT1; test: selectivity of YD1113/YD1290 on PRMT panel, PRMT1; format: biochemical; conditions: 10 μM; PRMT panel
In short: as §2

PRMT3 [5] = biological target: T1, PRMT3; test: thermal shift assay PRMT3; format: binding; parameters: PRMT3 (residues 211-531) was cloned into the pET28a-MHL expression vector; tag of the pET28a-MHL vector (not described); made in house; host or cells: Escherichia coli BL21(DE3); conditions: 100 μM compound, 20 μM protein
Protocol: as §3, §4
Target sequence in this assay (O60678 211-531): as the sequence (O60678 211-531) above

PRMT6 = PRMT6 (Homo sapiens, UniProt Q96LA8); test: selectivity of YD1113/YD1290 on PRMT panel, PRMT6; format: biochemical; conditions: 10 μM; PRMT panel
Chain of PRMT6 (Q96LA8 whole entry, species assumed): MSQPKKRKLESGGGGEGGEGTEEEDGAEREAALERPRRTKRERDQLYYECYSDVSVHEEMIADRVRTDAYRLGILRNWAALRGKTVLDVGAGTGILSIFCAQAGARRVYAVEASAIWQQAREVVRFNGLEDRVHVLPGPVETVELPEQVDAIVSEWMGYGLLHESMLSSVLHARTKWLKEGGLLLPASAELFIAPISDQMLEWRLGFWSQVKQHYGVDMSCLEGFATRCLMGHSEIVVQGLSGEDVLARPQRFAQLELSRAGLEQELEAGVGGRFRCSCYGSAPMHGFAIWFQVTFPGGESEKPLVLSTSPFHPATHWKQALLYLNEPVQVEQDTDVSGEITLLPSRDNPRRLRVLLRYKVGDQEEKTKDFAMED
In short: as §2

PRMT5 = PRMT5 (Homo sapiens, UniProt O14744); test: selectivity of YD1113 on PRMT panel, PRMT5; format: biochemical; conditions: read-out: IC50 value PRMT5
Chain of PRMT5 (O14744 whole entry, species assumed): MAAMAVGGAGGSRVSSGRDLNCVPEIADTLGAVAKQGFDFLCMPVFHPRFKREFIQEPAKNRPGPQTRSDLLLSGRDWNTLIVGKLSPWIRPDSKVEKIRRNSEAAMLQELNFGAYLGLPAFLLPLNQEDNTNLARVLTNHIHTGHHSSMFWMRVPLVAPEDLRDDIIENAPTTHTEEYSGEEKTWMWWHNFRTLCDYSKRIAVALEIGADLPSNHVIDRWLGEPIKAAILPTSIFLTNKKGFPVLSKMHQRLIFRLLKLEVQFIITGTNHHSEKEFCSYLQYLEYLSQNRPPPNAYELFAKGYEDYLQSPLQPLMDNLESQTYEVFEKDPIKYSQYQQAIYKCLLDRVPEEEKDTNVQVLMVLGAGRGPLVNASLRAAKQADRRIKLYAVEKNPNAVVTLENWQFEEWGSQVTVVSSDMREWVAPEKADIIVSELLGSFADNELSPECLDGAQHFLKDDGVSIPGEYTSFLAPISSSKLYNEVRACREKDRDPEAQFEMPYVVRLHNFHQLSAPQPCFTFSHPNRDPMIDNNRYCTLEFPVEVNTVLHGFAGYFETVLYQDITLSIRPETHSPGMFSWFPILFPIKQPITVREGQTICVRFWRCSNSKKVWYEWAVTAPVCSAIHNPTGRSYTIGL
Chain of PRMT5 (Q9BQA1 whole entry partner, species assumed): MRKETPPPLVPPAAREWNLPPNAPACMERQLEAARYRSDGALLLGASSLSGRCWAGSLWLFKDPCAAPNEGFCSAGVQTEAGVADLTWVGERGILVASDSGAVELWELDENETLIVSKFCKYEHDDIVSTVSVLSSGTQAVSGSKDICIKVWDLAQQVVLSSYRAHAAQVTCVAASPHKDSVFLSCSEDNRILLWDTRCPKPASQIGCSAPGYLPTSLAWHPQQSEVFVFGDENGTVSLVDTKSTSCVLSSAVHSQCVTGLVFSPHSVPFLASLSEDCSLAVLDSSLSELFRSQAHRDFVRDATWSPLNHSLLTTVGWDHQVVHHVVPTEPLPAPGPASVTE
Protocol: as §1
Next, the selectivity of YD1113 was investigated on a panel of PRMTs at 10 μM.

IC50 (PRMT3/4/5): 138 to 351 nM
IC50 (PRMT3 [1]): 321 nM
inhibition mechanism vs peptide substrate, PRMT3 (PRMT3 [2]; H4-21 15 to 240 μM, SAM 30 μM fixed): noncompetitive to the peptide substrate
inhibition mechanism vs SAM, PRMT3 (PRMT3 [2]; SAM 30 to 240 μM, H4-21 30 μM fixed): competitive to SAM
inhibition at 10 µM (PRMT8): 12%
ΔTm at 100 µM (PRMT1 [3]): 0.6 °C
ΔTm at 100 µM (PRMT4): 2.6 °C
inhibition at 10 µM (PRMT1 [4]): < 35%
ΔTm at 100 µM (PRMT3 [5]): 5.8 °C
inhibition at 10 µM (PRMT6): < 35%
IC50 (PRMT5): 351 nM
Structure (SMILES): Nc1ncnc2c1ncn2[C@@H]1O[C@H](CSCCNC(=O)NCc2ccccc2)[C@@H](O)[C@H]1O [Compound 7a, 1-(2-((((2S,3S,4R,5R)-5-(6-amino-9H-purin-9-yl)-3,4-dihydroxytetrahydrofuran-2-yl)methyl)thio)ethyl)-3-benzylurea]
